Results: publication PMC7823712, “Synthesis and Antiplasmodial Activity of Novel Bioinspired Imidazolidinedione Derivatives” (Biomolecules, 2020)
Values after ≈ are worked out from the molar mass of the structure shown. Values joined by “and” are separate entries in the source; they are usually repeats but may differ in a detail not shown here. Equal entries are not always repeated. Where two headings read alike, the source gives them in different places.

Columns and labels:
[1] = tested on: P. falciparum D10 (CQ-sensitive) strain; assay: P. falciparum drug susceptibility assay (pLDH), D10 strain; format: cell-based, Plasmodium falciparum; conditions: for IC50: Plasmodium falciparum, read-out: P. falciparum IC50 D10; for SI D10: SI = IC50 HaCaT/IC50 P. falciparum strain
Protocol: Plasmodium falciparum cultures were carried out according to Trager and Jensen, with slight modifications. […] Drugs were placed in 96-well flat-bottomed microplates starting from the concentration of 20 µg/mL and 8 serial two-fold dilutions were made. […] Parasite growth was determined spectrophotometrically (OD650) by measuring the activity of the parasite lactate dehydrogenase (pLDH), according to a modified version of the method of Makler in control and drug-treated cultures.

[2] = tested on: P. falciparum W2 (CQ-resistant) strain; assay: P. falciparum drug susceptibility assay (pLDH), W2 strain; format: cell-based, Plasmodium falciparum; conditions: for IC50: Plasmodium falciparum, read-out: P. falciparum IC50 W2; for RI: RI = IC50 CQ resistant P. falciparum strain/IC50 CQ sensitive P. falciparum strain; for SI W2: SI = IC50 HaCaT/IC50 P. falciparum strain
Protocol: Plasmodium falciparum cultures were carried out according to Trager and Jensen, with slight modifications. The CQ-susceptible strain D10 and the CQ-resistant strain W2 were maintained at 5% hematocrit (human type A-positive red blood cells) in RPMI 1640 (EuroClone, Milan, Italy) medium with the addition of 1% AlbuMax (Invitrogen, Milan, Italy), 0.01% hypoxanthine, 20 mM Hepes, and 2 mM glutamine. All the cultures were maintained at 37 °C in a standard gas mixture consisting of 1% O2, 5% CO2, and 94% N2. Compounds were dissolved in DMSO and then diluted with medium to achieve the required concentrations (final DMSO concentration < 1%, which is non-toxic to the parasite). Drugs were placed in 96-well flat-bottomed microplates starting from the concentration of 20 µg/mL and 8 serial two-fold dilutions were made. Asynchronous cultures with parasitaemia of 1–1.5% and 1% final hematocrit were aliquoted into the plates and incubated for 72 h at 37 °C. Parasite growth was determined spectrophotometrically (OD650) by measuring the activity of the parasite lactate dehydrogenase (pLDH), according to a modified version of the method of Makler in control and drug-treated cultures. The antimalarial activity is expressed as 50% inhibitory concentrations (IC50); […]

HaCaT cells = assay: Cytotoxicity assay (MTT) on HaCaT cells; format: cell-based; conditions: Homo sapiens, 48 h
Protocol: HaCaT cells were cultured in DMEM medium with 10% FBS, GlutaMAX™ and antibiotic-antimycotic. Cells were cultured at 37 °C in a humidified atmosphere containing 5% CO2. To evaluate the cytotoxic activity of tested compounds, the MTT assay was used. Cells (5 × 10^3 cells/well) were plated into a 96-multiwell plate and incubated for 24 h, to grow as monolayers. Subsequently, different doses of compounds dissolved in DMSO were added to each well and mixed. Plates were then incubated for 48 h. The culture media with tested samples were then removed, and cells in each well were treated with 50 μL of complete culture medium with MTT. After 4 h of incubation in a cell culture incubator, MTT solution was replaced with DMSO (50 μL/well) and plates were agitated for 5 min to dissolve the formazan salts. Formazan absorbance was measured at 570 nm, with background measured at 630 nm, using an Asys UVM 340 Microplate Reader (Cambridge, UK). Results were expressed as IC50 values, with respect to the control (not treated cells).

[3] = tested on: FcM29-Cameroon, a high chloroquine-resistant strain of P. falciparum; set-up: method as in PMID 21612900; conditions: cited from earlier work
Hemolysis assay = format: cell-based; conditions: human erythrocyte suspension, fresh human erythrocytes
Protocol: The study protocol was approved by the Bioethics Commission at the Lower Silesian Medical Chamber (1/PNHAB/2018). Hemolytic activity was estimated by the measurement of hemoglobin release from human erythrocyte suspensions after incubation with (5), (6), (7) and (8), as previously described. Compouds dissolved in DMSO were added in a volume corresponding to a final concentration of 20 µg/mL in the sample (DMSO was added in an identical volume). Negative and positive controls were also determined. Hemolysis (H) was calculated according to the following formula:H (%) = [(Asample − Anegative control)/(Apositive control − Anegative control)] × 100(1) where Asample, Anegative control, and Apositive control represent the absorbances of the sample, and negative (erythrocytes in PBS buffer) and positive (erythrocytes in distilled water) controls, respectively.

Solubility in water = format: physicochemical; conditions: statement in words
W2 strain = tested on: W2 strain; set-up: method as in PMID 16190773; conditions: cited from earlier work
[4] = tested on: Plasmodium falciparum 3D7; set-up: method as in PMID 25797165; conditions: read-out: IC50 against Plasmodium falciparum 3D7; cited from earlier work
[5] = tested on: chloroquine-resistant Dd2 strain; set-up: method as in PMID 25797165; conditions: compared with 3D7; cited from earlier work
[6] = D10 (CQ-sensitive), 72 h, pLDH, IC50 expressed in µM
[7] = W2 (CQ-resistant), 72 h, pLDH, IC50 expressed in µM

Row | IC50 [1, 6] [µM] | IC50 ([1]; D10 (CQ-sensitive), 72 h, pLDH) [µg/mL] | IC50 [2, 7] [µM] | IC50 ([2]; W2 (CQ-resistant), 72 h, pLDH) [µg/mL] | Compound | SI D10 [1] | RI [2] | SI W2 [2] | IC50 (HaCaT cells) [µg/mL] | IC50 (HaCaT cells; IC50 expressed in µM) [µM] | also measured
1 |  |  |  |  | CCN(CC)CCCC(C)Nc1ccnc2cc(Cl)ccc12 (stereo not shown) [CQ, Chloroquine, reference compound] |  |  |  |  |  | IC50 ([1]; D10, 72 h): 0.00764 µg/mL and 10 nM; IC50 ([2]; W2, 72 h): 0.103 µg/mL and 200 nM
2 | 17.5 ± 1.55 | 8.27 ± 0.737 | 10.1 ± 0.2 | 4.78 ± 0.0974 | O=C1NC2(CCc3ccccc32)C(=O)N1CCCCCN1CCN(c2nc3ccccc3[nH]2)CC1 (racemic) [(6), (R,S)-1-(5-(4-(1H-Benzo[d]imidazol-2-yl)piperazin-1-yl)pentyl)-2′,3′-dihydrospiro[imidazolidine-4,1′-indene]-2,5-dione] | 3.31 | 0.58 | 5.73 | 27.4 | 58 ± 1.48 | 
3 |  |  |  |  | CN1C(=N)N(C)/C(=C/c2c[nH]c3ccccc23)C1=O [Aplysinopsin] |  |  |  |  |  | IC50 against FcM29-Cameroon [3]: 0.43 µg/mL (≈ 1.69 µM); IC50 ([3]; read-out: IC50 against FcM29-Cameroon): 1.69 µM
4 | 12.75 ± 0.02 | 6.2 ± 0.892 | 4.98 ± 0.52 | 2.42 ± 0.255 | O=C1NC2(CCCc3ccccc32)C(=O)N1CCCCCN1CCN(c2nc3ccccc3[nH]2)CC1 (racemic) [Compound (5), (R,S)-1-(5-(4-(1H-Benzo[d]imidazol-2-yl)piperazin-1-yl)pentyl)-3′,4′-dihydro-2′H-spiro[imidazolidine-4,1′-naphthalene]-2,5-dione] | 3.26 | 0.39 | 8.34 | 20.2 | 41.6 ± 2.43 | hemolysis at 30 min, 20 µg/mL (Hemolysis assay): 5.6%; solubility in water (Solubility in water): low solubility in water
5 |  |  |  |  | CC(C)C1C(=O)C(=O)N/C1=N/C(=N)Nc1ccc(Cl)c(Cl)c1 (stereo not shown) [WR182393] |  |  |  |  |  | IC50 for W2 (W2 strain): 2.66469 µg/mL
6 |  | > 10 | 12 ± 4.12 | 5.65 ± 1.95 | O=C1NC2(CCc3ccccc32)C(=O)N1CCCCCN1CCN(C2Cc3ccccc3C2)CC1 (racemic) [(8), (R,S)-1-(5-(4-(2,3-Dihydro-1H-inden-2-yl)piperazin-1-yl)pentyl)-2′,3′-dihydrospiro[imidazolidine-4,1′-indene]-2,5-dione] |  |  | 4.02 | 22.7 | 48.1 ± 2.49 | 
7 |  |  |  |  | CCN1C(=O)N(CCC(C)C)C2(CCN(Cc3cc(Cl)c(Cl)cc3O)CC2)C1=O [CWHM-505] |  |  |  |  |  | IC50 [4]: 0.099 µM
8 | 19.9 ± 0.29 | 9.66 ± 0.141 | 8.93 ± 1.35 | 4.35 ± 0.659 | O=C1NC2(CCCc3ccccc32)C(=O)N1CCCCCN1CCN(C2Cc3ccccc3C2)CC1 (racemic) [(7), (R,S)-1-(5-(4-(2,3-Dihydro-1H-inden-2-yl)piperazin-1-yl)pentyl)-3′,4′-dihydro-2′H-spiro[imidazolidine-4,1′-naphthalene]-2,5-dione] | 3.16 | 0.45 | 7.02 | 30.5 | 62.8 ± 2.12 | 
9 |  |  |  |  | CCN1C(=O)N(CCC(C)C)C2(CCN(Cc3cc(Cl)ccc3O)CC2)C1=O [CWHM-123, 8-(5-chloro-2-hydroxybenzyl)-3-ethyl-1-isopentyl-1,3,8-triazaspiro[4.5]decane-2,4-dione] |  |  |  |  |  | IC50 [4]: 0.31 µM; potency on the chloroquine-resistant Dd2 strain [5]: equivalent potency
